Assay results as given in US9695155B2, “Herbicidal substituted pyrimidinyloxy benzene compounds” (E. I. DU PONT DE NEMOURS AND COMPANY, priority 2013, dated 2017).

Assays:
[1] = system: large (Lg) crabgrass; experiment: Test C postemergence; assay type: in vivo, Digitaria sanguinalis; conditions: Digitaria sanguinalis, post-emergence
Procedure, shortened: (§1)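 Seeds are planted in blended loam soil and sand and treated preemergence, while seedlings in a peat moss/vermiculite medium receive postemergence sprays at 2 to 18 cm height. All plants stay in the greenhouse for 13 to 15 days before visual comparison with controls on a 0–100 scale.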

[2] = system: giant foxtail; experiment: Test A preemergence; assay type: in vivo, Setaria faberii
Procedure, shortened: (§2)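 Compounds in non-phytotoxic solvent with surfactant applied as soil spray preemergence, or postemergence to plants 2-10 cm at one- to two-leaf stage, in loam/sand. After approximately 10 days in greenhouse, injury rated visually versus untreated controls, 0 (no effect) to 100 (complete control).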

[3] = system: waterhemp; experiment: Test C postemergence; assay type: in vivo, Amaranthus rudis
Procedure, shortened: as §1

[4] = system: yellow nutsedge; experiment: Test C postemergence; assay type: in vivo, Cyperus esculentus
Procedure, shortened: as §1

[5] = system: morningglory; experiment: Test A preemergence; assay type: in vivo, Ipomoea spp.
Procedure, shortened: as §2

[6] = system: Italian ryegrass; experiment: Test C postemergence; assay type: in vivo, Lolium multiflorum
Procedure, shortened: as §1

[7] = system: corn; experiment: Test C postemergence; assay type: in vivo, Zea mays; conditions: Zea mays, post-emergence
Procedure, shortened: as §1

[8] = system: morningglory; experiment: Test A postemergence; assay type: in vivo, Ipomoea spp.; conditions: Ipomoea, post-emergence, 240 h, read-out: Plant response rating, Morningglory
Procedure, shortened: as §2

[9] = system: blackgrass; experiment: Test C postemergence; assay type: in vivo, Alopecurus myosuroides; conditions: Alopecurus myosuroides, post-emergence
Procedure, shortened: as §1

[10] = system: wild oat; experiment: Test C postemergence; assay type: in vivo, Avena fatua; conditions: Avena fatua, post-emergence
Procedure, shortened: as §1

[11] = system: johnsongrass; experiment: Test C postemergence; assay type: in vivo, Sorghum halepense
Procedure, shortened: as §1

[12] = system: velvetleaf; experiment: Test A preemergence; assay type: in vivo, Abutilon theophrasti
Procedure, shortened: as §2

[13] = system: giant foxtail; experiment: Test C postemergence; assay type: in vivo, Setaria faberii; conditions: Setaria faberi, post-emergence
Procedure, shortened: as §1

[14] = system: large (Lg) crabgrass; experiment: Test A preemergence; assay type: in vivo, Digitaria sanguinalis
Procedure, shortened: as §2

[15] = system: chickweed; experiment: Test C postemergence; assay type: in vivo, Stellaria media; conditions: Stellaria media, post-emergence
Procedure, shortened: as §1

[16] = 31 g ai/ha, postemergence, visual rating, scale 0 to 100 (0 no effect, 100 complete control), 13 to 15 days

## N#Cc1cccc(Oc2ncc(Cl)cn2)c1-n1cc(OCC(F)(F)F)cn1 [Compound 274, 3-[(5-chloro-2-pyrimidinyl)oxy]-2-[4-(2,2,2-trifluoroethoxy)-1H-pyrazol-1-yl]benzonitrile]
[1]; 16 g ai/ha, postemergence, 0 is no effect, 100 is complete control, read-out: Plant response rating (0 to 100), Crabgrass, Large
  pest or weed control at 16 g/ha: 5%
[1]; 31 g ai/ha, postemergence, visual rating, scale 0 to 100 (0 no effect, 100 complete control), 13 to 15 days, read-out: Crabgrass, Large plant response rating
  pest or weed control at 31 g/ha: 5%
[1]; 125 g ai/ha, postemergence, visual rating, scale 0 to 100 (0 no effect, 100 complete control), read-out: Plant response rating, Crabgrass, Large
  pest or weed control at 125 g/ha: 60%
[1]; Postemergence, 62 g ai/ha, scale 0 to 100 (0 no effect, 100 complete control), 13 to 15 days, read-out: Plant response rating, Crabgrass, Large
  pest or weed control at 62 g/ha: 30%
[2]; 125 g ai/ha
  Foxtail, Giant plant response rating (0 to 100 scale): 100
[2]; Setaria faberi, pre-emergence, 240 h, 500 g ai/ha, 0 to 100 scale where 0 is no effect and 100 is complete control, read-out: Foxtail, Giant plant response rating
  pest or weed control at 500 g/ha: 100%
[3]; [16]
  Waterhemp plant response rating: 85
[3]; Amaranthus tuberculatus, post-emergence, 16 g ai/ha, postemergence, 0 is no effect, 100 is complete control, read-out: Plant response rating (0 to 100), Waterhemp
  pest or weed control at 16 g/ha: 70%
[3]; Amaranthus tuberculatus, post-emergence, 125 g ai/ha, postemergence, visual rating, scale 0 to 100 (0 no effect, 100 complete control), read-out: Plant response rating, Waterhemp
  pest or weed control at 125 g/ha: 98%
[3]; Amaranthus tuberculatus, post-emergence, Postemergence, 62 g ai/ha, scale 0 to 100 (0 no effect, 100 complete control), 13 to 15 days, read-out: Plant response rating, Waterhemp
  pest or weed control at 62 g/ha: 95%
[4]; [16]
  Nutsedge, Yellow plant response rating: 5
[4]; Cyperus, post-emergence, 16 g ai/ha, postemergence, 0 is no effect, 100 is complete control, read-out: Plant response rating (0 to 100), Nutsedge, Yellow
  pest or weed control at 16 g/ha: 10%
[4]; Cyperus, post-emergence, 125 g ai/ha, postemergence, visual rating, scale 0 to 100 (0 no effect, 100 complete control), read-out: Plant response rating, Nutsedge, Yellow
  pest or weed control at 125 g/ha: 10%
[4]; Cyperus, post-emergence, Postemergence, 62 g ai/ha, scale 0 to 100 (0 no effect, 100 complete control), 13 to 15 days, read-out: Plant response rating, Nutsedge, Yellow
  pest or weed control at 62 g/ha: 20%
[5]; 125 g ai/ha
  Morningglory plant response rating (0 to 100 scale): 100
[5]; Ipomoea, pre-emergence, 240 h, 500 g ai/ha, 0 to 100 scale where 0 is no effect and 100 is complete control, read-out: Morningglory plant response rating
  pest or weed control at 500 g/ha: 100%
[6]; [16]
  Ryegrass, Italian plant response rating: 5
[6]; Lolium multiflorum, post-emergence, 16 g ai/ha, postemergence, 0 is no effect, 100 is complete control, read-out: Plant response rating (0 to 100), Ryegrass, Italian
  pest or weed control at 16 g/ha: 5%
[6]; Lolium multiflorum, post-emergence, 125 g ai/ha, postemergence, visual rating, scale 0 to 100 (0 no effect, 100 complete control), read-out: Plant response rating, Ryegrass, Italian
  pest or weed control at 125 g/ha: 35%
[6]; Lolium multiflorum, post-emergence, Postemergence, 62 g ai/ha, scale 0 to 100 (0 no effect, 100 complete control), 13 to 15 days, read-out: Plant response rating, Ryegrass, Italian
  pest or weed control at 62 g/ha: 30%
[7]; 16 g ai/ha, postemergence, 0 is no effect, 100 is complete control, read-out: Plant response rating (0 to 100), Corn
  plant injury at 16 g/ha: 5%
[7]; 31 g ai/ha, postemergence, visual rating, scale 0 to 100 (0 no effect, 100 complete control), 13 to 15 days, read-out: Corn plant response rating
  plant injury at 31 g/ha: 10%
[7]; 125 g ai/ha, postemergence, visual rating, scale 0 to 100 (0 no effect, 100 complete control)
  Corn plant response rating (crop injury, 0 = no effect, 100 = complete kill) at 125 g/ha: 15%
[7]; Postemergence, 62 g ai/ha, scale 0 to 100 (0 no effect, 100 complete control), 13 to 15 days
  Corn plant response rating (crop injury, 0 = no effect, 100 = complete kill) at 62 g/ha: 10%
[8]; 125 g ai/ha, 0 to 100 scale, 0 no effect, 100 complete control
  pest or weed control at 125 g/ha: 90%
[8]; 500 g ai/ha, 0 to 100 scale where 0 is no effect and 100 is complete control
  pest or weed control at 500 g/ha: 100%
[9]; 16 g ai/ha, postemergence, 0 is no effect, 100 is complete control, read-out: Plant response rating (0 to 100), Blackgrass
  pest or weed control at 16 g/ha: 5%
[9]; 31 g ai/ha, postemergence, visual rating, scale 0 to 100 (0 no effect, 100 complete control), 13 to 15 days, read-out: Blackgrass plant response rating
  pest or weed control at 31 g/ha: 5%
[9]; 125 g ai/ha, postemergence, visual rating, scale 0 to 100 (0 no effect, 100 complete control), read-out: Plant response rating, Blackgrass
  pest or weed control at 125 g/ha: 20%
[9]; Postemergence, 62 g ai/ha, scale 0 to 100 (0 no effect, 100 complete control), 13 to 15 days, read-out: Plant response rating, Blackgrass
  pest or weed control at 62 g/ha: 15%
[10]; 16 g ai/ha, postemergence, 0 is no effect, 100 is complete control, read-out: Plant response rating (0 to 100), Oat, Wild
  pest or weed control at 16 g/ha: 30%
[10]; 125 g ai/ha, postemergence, visual rating, scale 0 to 100 (0 no effect, 100 complete control), read-out: Plant response rating, Oat, Wild
  pest or weed control at 125 g/ha: 30%
[10]; Postemergence, 62 g ai/ha, scale 0 to 100 (0 no effect, 100 complete control), 13 to 15 days, read-out: Plant response rating, Oat, Wild
  pest or weed control at 62 g/ha: 35%
[11]; [16]
  Johnsongrass plant response rating: 5
[11]; Sorghum halepense, post-emergence, 16 g ai/ha, postemergence, 0 is no effect, 100 is complete control, read-out: Plant response rating (0 to 100), Johnsongrass
  pest or weed control at 16 g/ha: 5%
[11]; Sorghum halepense, post-emergence, 125 g ai/ha, postemergence, visual rating, scale 0 to 100 (0 no effect, 100 complete control), read-out: Plant response rating, Johnsongrass
  pest or weed control at 125 g/ha: 10%
[11]; Sorghum halepense, post-emergence, Postemergence, 62 g ai/ha, scale 0 to 100 (0 no effect, 100 complete control), 13 to 15 days, read-out: Plant response rating, Johnsongrass
  pest or weed control at 62 g/ha: 5%
[12]; 125 g ai/ha
  Velvetleaf plant response rating (0 to 100 scale): 100
[12]; Abutilon theophrasti, pre-emergence, 240 h, 500 g ai/ha, 0 to 100 scale where 0 is no effect and 100 is complete control, read-out: Velvetleaf plant response rating
  pest or weed control at 500 g/ha: 100%
[13]; 16 g ai/ha, postemergence, 0 is no effect, 100 is complete control, read-out: Plant response rating (0 to 100), Foxtail, Giant
  pest or weed control at 16 g/ha: 5%
[13]; 31 g ai/ha, postemergence, visual rating, scale 0 to 100 (0 no effect, 100 complete control), 13 to 15 days, read-out: Foxtail, Giant plant response rating
  pest or weed control at 31 g/ha: 10%
[13]; 125 g ai/ha, postemergence, visual rating, scale 0 to 100 (0 no effect, 100 complete control), read-out: Plant response rating, Foxtail, Giant
  pest or weed control at 125 g/ha: 60%
[13]; Postemergence, 62 g ai/ha, scale 0 to 100 (0 no effect, 100 complete control), 13 to 15 days, read-out: Plant response rating, Foxtail, Giant
  pest or weed control at 62 g/ha: 10%
[14]; 125 g ai/ha
  Crabgrass, Large plant response rating (0 to 100 scale): 100
[14]; Digitaria sanguinalis, pre-emergence, 240 h, 500 g ai/ha, 0 to 100 scale where 0 is no effect and 100 is complete control, read-out: Crabgrass, Large plant response rating
  pest or weed control at 500 g/ha: 100%
[15]; 16 g ai/ha, postemergence, 0 is no effect, 100 is complete control, read-out: Plant response rating (0 to 100), Chickweed
  pest or weed control at 16 g/ha: 70%
[15]; 31 g ai/ha, postemergence, visual rating, scale 0 to 100 (0 no effect, 100 complete control), 13 to 15 days, read-out: Chickweed plant response rating
  pest or weed control at 31 g/ha: 70%
[15]; 125 g ai/ha, postemergence, visual rating, scale 0 to 100 (0 no effect, 100 complete control), read-out: Plant response rating, Chickweed
  pest or weed control at 125 g/ha: 98%
[15]; Postemergence, 62 g ai/ha, scale 0 to 100 (0 no effect, 100 complete control), 13 to 15 days, read-out: Plant response rating, Chickweed
  pest or weed control at 62 g/ha: 90%
